Data taken from patent US20130245081A1, “Compositions and Methods for Treating Amyotrophic Lateral Sclerosis” (priority 2009, published 2013).

Assays:
[1] = system: dopamine receptor
[2] = clinical; conditions: for CL/F / Fe / Ue / λz: Day 7, fasted; for CL renal: urine and plasma
Source text: A total of 54 subjects (30 subjects in Study CL001 and 24 subjects in Study CL002) were enrolled. Healthy, non-smoking, male and female subjects 30 to 60 years of age, inclusive, with normal or clinically acceptable physical examination and electrocardiogram (ECG) findings, systolic (90 to 140 mmHg) and diastolic (50 to 90 mmHg) blood pressure, and resting heart rate (50 to 100 bpm) who were willing to provide signed, written informed consent were eligible for enrollment. Female volunteers had to be of non-childbearing potential with negative pregnancy test results at screening and clinic check-in. Subjects with any history of neurodegenerative illnesses were excluded. The use of over-the-counter medications within 7 days prior to enrollment or prescription medications within 12 weeks prior to enrollment was prohibited.
In the second study, subjects were enrolled in 3 successive double-blind, placebo-controlled, panels of 8 subjects (n=6 active, n=2 placebo per panel).
Matching placebo capsules contained equivalent weights of microcrystalline cellulose. Capsules were administered orally with water. […] Subjects in the fasted cohorts were required to fast overnight for a minimum of 10 hours before dose administration. Subjects in the food cohort were required to fast overnight for a minimum of 10 hours before dose administration, with exception of the high fat/high calorie meal that was administered 30 minutes prior to drug administration. […] All available safety data were reviewed under blinded conditions to monitor for serious safety or tolerability events prior to proceeding with dose escalations.
In both studies, a complete collection was attempted for each urine sample interval.
Blood samples were collected into a 10 mL dipotassium ethylenediaminetetraacetic acid (K2-EDTA) Vacutainer® via an indwelling peripheral intravenous cannula or by direct venipuncture. Within 15 minutes of collection, the samples were centrifuged at 3000 rpm for 10 minutes at 4° C. After centrifugation, the plasma was divided into 2 aliquots of at least 1.5 mL each, placed into polypropylene containers, frozen, and stored at −20° C. until they were shipped for analysis.
Urine collected in each interval was well mixed, the pH was recorded, the total volume (or the weight and specific gravity) was recorded, and 2 aliquots of 20 mL each were collected into polypropylene containers and stored at −20° C. until they were shipped for analysis. All plasma and urine sample were shipped frozen on dry ice in 2 separate shipments per group (1 set of aliquots per shipment) to Eurofins AvTech Laboratories Inc. (Kalamazoo, Mich.) for bioanalytical analysis.
Plasma and urine concentrations were measured using validated liquid chromatography/mass spectrometry/mass spectrometry (LC/MS/MS) methods. […] The analytical procedure for analysis of plasma samples used a 100 μL aliquot of K2EDTA human plasma. The plasma sample was spiked with 20 μL of working internal standard solution and 20 μL of type 1 water for subject samples and QCs and 20 μL of the appropriate intermediate standard solution for standards. One hundred microliters ([…]) of 50% ammonium hydroxide solution was added to the sample followed by vortex mixing. One milliliter (1 mL) of tertbutyl methyl ether was then added and the sample was vortexed to extract the analyte and internal standard into the organic layer, followed by separation using flash freezing. The organic layer was decanted, evaporated to dryness, and the sample was reconstituted with 0.5 mL of reconstitution solution (0.1% ammonium hydroxide in 50:50 methanol; type 1 water (v/v/v)). A 10 μL aliquot of this reconstituted sample was injected into an LC/MS/MS system for analysis.

[3] = both, human, plasma, oral, 50 mg
[4] = both, human, plasma, oral, 100 mg
[5] = both, human, plasma, oral, 150 mg

CCCN[C@@H]1CCc2nc(N)sc2C1 [dexpramipexole, (6R)-2-amino-4,5,6,7-tetrahydro-6-(propylamino)benzothiazole]
functional affinity difference between pramipexole and dexpramipexole [1]: 10,000-20,000 fold | CL/F ([2]; 50 mg Twice Daily): 437 ± 60.8 mL/min | Fe ([2]; 50 mg Twice Daily): 87.2 ± 10.26 % dose | Ue ([2]; 50 mg Twice Daily): 32.5 ± 3.82 mg | λz ([2]; 50 mg Twice Daily): 0.1039 ± 0.0193 h⁻¹ | CL/F ([2]; 100 mg Twice Daily): 510 ± 57.4 mL/min | Fe ([2]; 100 mg Twice Daily): 75.5 ± 3.51 % dose | Ue ([2]; 100 mg Twice Daily): 56.3 ± 2.62 mg | λz ([2]; 100 mg Twice Daily): 0.0893 ± 0.0117 h⁻¹ | CL/F ([2]; 150 mg Twice Daily): 507 ± 74.1 mL/min | Fe ([2]; 150 mg Twice Daily): 89.6 ± 7.83 % dose | Ue ([2]; 150 mg Twice Daily): 100.3 ± 8.76 mg | λz ([2]; 150 mg Twice Daily): 0.0895 ± 0.0184 h⁻¹ | dose recovered in the urine as unchanged parent drug ([2]; 12-hour steady-state dosing period): approximately 84% | AUC(0-t) [2, 3]: 1450 ± 221 ng·h/mL | Cmax at 7 day [2, 3]: 191 ± 20.9 ng/mL | Tmax [2, 3]: 1.75 h | Vd/F [2, 3]: 255 ± 24 L | half-life [2, 3]: 6.87 ± 1.29 h | AUC(0-t) [2, 4]: 2470 ± 304 ng·h/mL | Cmax at 7 day [2, 4]: 306 ± 54.8 ng/mL | Tmax [2, 4]: 2.02 h | Vd/F [2, 4]: 348 ± 61.7 L | half-life [2, 4]: 7.89 ± 1.19 h | AUC(0-t) [2, 5]: 3750 ± 575 ng·h/mL | Cmax [2, 5]: 479 ± 74.6 ng/mL | Tmax [2, 5]: 2.18 h | Vd/F [2, 5]: 349 ± 75.8 L | half-life [2, 5]: 8.05 ± 1.8 h | CL renal ([2]; both, human, oral, 50 mg): 385 ± 90.3 mL/min | CL renal ([2]; both, human, oral, 100 mg): 382 ± 62.7 mL/min | CL renal ([2]; both, human, oral, 150 mg): 451 mL/min
